# Reference: paper PMC4481117 (Molecular Pain, 2015)
# Tests used:
# GST = test: Solid-phase binding of GST (control); details: immobilized Dyn A; % of the αMI-domains; not shown
# Experimental: Microtiter plates were coated with different concentrations of the fibrinogen D100 fragment or Dyn A overnight at 4 °C and post-coated with 3 % BSA for 1 h. The GST-αMI-domains in 20 mM Tris–HCl, pH 7.4, 100 mM NaCl, 1 mM MgCl2, 1 mM CaCl2, 0.05 % Tween 20, and 5 % glycerol were added to the wells and incubated for 1.5 h at 22 °C. After washing, the plates were incubated with an anti-GST mAb at a 1:5000 dilution for 1 h at 22 °C. After washing, goat anti-mouse IgG conjugated to alkaline phosphatase was added for 1 h and the binding of the αMI-domains was detected by reaction with p-nitrophenyl phosphate measuring the absorbance at 405 nm. Background binding to BSA was subtracted.
# wild-type HEK293 cells = test: Adhesion of wild-type HEK293 cells to immobilized peptide; type: cell-based, Human; details: coated wells, calcein-labeled cells, 30 min at 37 °C
# Experimental: Fig. 3 Adhesion of Mac-1-expressing cells to Dyn A and Dyn B. a, Mac-1-expressing and wild-type HEK293 cells were labeled with calcein and 5x10^4 cells were added to the wells coated with different concentrations of the Dyn A. After 30 min at 37 °C, nonadherent cells were removed and fluorescence was measured. The data shown are means of triplicate determinations, and error bars represent S.E. The figure is representative of 8 experiments. b , adhesion of HEK293 cells expressing Mac-1, LFA and the I-less form of Mac-1 to Dyn A and Dyn B immobilized at 10 μM was determined as described in A. c, calcein-labeled Mac-1-HEK293 cells were preincubated without or with 10 μg/ml of anti-αM mAb 44a or 1 μg/ml NIF for 15 minutes. For testing the role of glucosaminoglycans in cell adhesion, dynorphin A-coated wells were preincubated with 100 μl of 10 μg/ml of chondroitin sulfate A, chondroitin sulfate B and heparin. […]
# Adhesion assays were performed essentially as described previously. […] Fluorescence was measured in a CytoFluorII fluorescence plate reader (Perceptive Biosystems, Framingham, MA). […] After aspirating the solution, labeled cells were added and cell adhesion was analyzed as above.
# U937 monocytic cells = test: Chemotaxis migration assay of U937 cells to Dyn A agarose gel; type: cell-based, human; details: 10 μM Dyn A in agarose
# Experimental: Fig. 7 Chemotactic response of U937 cells to Dyn A. a, schematic representation of the experimental format. U937 cells (5x10^4) were placed in the center of the coverslip between two agar gels, one containing Dyn A and control gel without Dyn A. After 2 h at 37 °C, a series of photographs was taken in the direction of migration at 1-mm intervals to count the number of migrating cells. b , representative images after 2 h of migration show the cells within the starting point (marked with a cross; right panels) and at the border of the Dyn A-containing agar drop (left panels). […] Two bottom panels show the experimental condition with no Dyn A gradient. c, quantification of U937 cells migrated from the initial point after 2 h based on the results shown in A (right panel). Migration of control untreated U937 cells that completely migrated from the initial point of cell placement was assigned a value of 100 %. In contrast, there was no cell migration without a Dyn A gradient (0 %). […] A representative experiment is shown. d, distribution of U937 cells between two gels: Dyn A-containing (on the left) and without Dyn A (on the right). “0” on abscissa corresponds to the initial point where cells were loaded and the numbers show the distance that cells migrated in both directions from the starting point. All cells in each of 10 consecutive fields towards the Dyn A-containing and empty gels were counted and plotted as a distance from the starting point
# Chemotaxis assays using U937 monocytic cells were performed on 22 × 22 mm cover slips. 1 % agarose (Life Technologies, Carlsbad, CA) was dissolved in HBSS by heating. After cooling, the agarose solution was mixed with Dyn A to obtain a final concentration of 10 μM. A 10 μl drop of warm agarose solution containing Dyn A was placed at one corner of the cover glass at ~1.5 mm from the edge. A control agarose drop was placed diagonally at the opposite corner of the cover glass. Agarose was allowed to solidify for 5 min, and the cover glasses were placed into wells of the 6-well plate filled with 5 ml of RPMI 1640 + 10 % FBS. A 10-μl aliquot of U937 cells (5x10^4) was loaded in the center of the cover glass and the plate was incubated for 2 h at 37 °C in a humidified atmosphere containing 5 % CO2. In this experimental format, the cells sediment approximately 5 min after loading, forming an ~4 mm circle, and begin to migrate towards the Dyn A-containing agarose drop. […] The photographs were taken at 1-mm intervals in the direction of cell migration towards the dynorphin-containing or control agarose drops without dynorphin A. The number of cells at the starting point and in each of 10 consecutive fields towards the dynorphin-containing and empty gels were counted and plotted as a distance from the starting point.
compound,measurement,setting,value
CC[C@H](C)[C@H](NC(=O)[C@H](CCCNC(=N)N)NC(=O)[C@H](CCCNC(=N)N)NC(=O)[C@H](CC(C)C)NC(=O)[C@H](Cc1ccccc1)NC(=O)CNC(=O)CNC(=O)[C@@H](N)Cc1ccc(O)cc1)C(=O)N[C@@H](CCCNC(=N)N)C(=O)N1CCC[C@H]1C(=O)N[C@@H](CCCCN)C(=O)N[C@@H](CC(C)C)C(=O)N[C@@H](CCCCN)C(=O)N[C@@H](Cc1c[nH]c2ccccc12)C(=O)N[C@@H](CC(=O)O)C(=O)N[C@@H](CC(N)=O)C(=O)N[C@@H](CCC(N)=O)C(=O)O [Dyn A],Binding of GST to Dyn A relative to the αMI-domains,GST,less than 5%
same,Adhesion of wild-type HEK293 cells (in words),wild-type HEK293 cells,adhered only slightly
same,Distance travelled by majority of untreated cells towards Dyn A,"U937 monocytic cells; 2 h, no inhibitor",~ 8 mm
same,Chemotaxis of U937 cells (in words),U937 monocytic cells; 2 h at 37 °C,efficiently migrated along the gradient of Dyn A
